Data as given in US20110319392A1, “Thiazole Sulfonamide And Oxazole Sulfonamide Kinase Inhibitors” (priority 2009, published 2011).
Counter-ions that a name gives are not always drawn.

How the values were obtained:
[1] = target: B-Raf (Homo sapiens, UniProt P15056); test: B-Raf Accelerated MEK ATPase assay (BRAMA), Method A or B; type: biochemical
Procedure, shortened: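 ADP production, initiated by catalytic activated Raf with unphosphorylated MEK, is followed by NADH oxidation through a PK/LDH coupled system. Method B differs from the kinetic Method A by a single end-point read and 150 nM final MEK.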

[2] = tested on: HT-29 tumor cells; test: Cell growth inhibition assay (CellTiter-Glo), HT-29; type: cell-based, Human; settings: for IC50: Homo sapiens
Method: Human breast tumor cells (BT474) were cultured in RPMI (Mediatech […]), containing 10% FBS (JRH Biosciences 12176) and 1% penicillin-streptomycin (Invitrogen 15140). Human head and neck tumor cells (HN5) were cultured in high glucose DMEM (Mediatech 50-013-PB) containing 10% FBS and 1% penicillin-streptomycin. Human colon tumor cells (Colo205) were cultured in RPMI (Mediatech 50-020-PB) containing 10% FBS and 1% penicillin-streptomycin. Human melanoma cancer cells (SK-MEL-28) were cultured in EMEM with nonessential amino acids (Mediatech 50-011-PB) containing 10% FBS, 1% sodium pyruvate (JT Baker 3354-04), and 1% penicillin-streptomycin. Human melanoma cancer cells (A375P F11s) were cultured in RPMI (Mediatech 50-020-PB) containing 10% FBS, 1% sodium pyruvate, and 1% penicillin-streptomycin. Human colon cancer cells (HT-29) were cultured in high glucose DMEM (Mediatech 50-013-PB) containing 10% FBS and 1% penicillin-streptomycin. Human melanoma cancer cells (SK-MEL-3) were cultured in McCoy's 5A (50-025-PB) containing 15% FBS, and 1% penicillin-streptomycin. All cell lines were maintained at 37° C. in a humidified 5% CO2, 95% air incubator. Cells were harvested using trypsin/EDTA (Invitrogen 25200), counted using a haemocytometer, and plated. For 96-well assays (using white full-area NUNC plates cat. #136102), cells were plated in 105 μL at the following densities (cells/well): HNS, 500; Colo 205, 500; SK-MEL-28, 500; A375P F11s, 500; HT-29, 500; SK-MEL-3, 500; and BT474, 3000. For 384-well assays (white full-area NUNC plates, cat. #781080), cells were plated in 48 μL at the following densities (cells/well): HNS, 500; Colo205, 500; SK-MEL-28, 500; A375P F11s, 500; HT-29, 500; SK-MEL-3, 500; and BT474, 2000.
The next day, compounds were diluted as follow: For 96-well assays, 13.5 μL of compound in DMSO were diluted using nine (9) serial 1:3 dilutions of 4.5 μL in 9 of DMSO. Medium (270 μL/well of RPMI with 10% FBS and 1% penicillin-streptomycin) was added to the plates. Aliquots (7 μL) were added to cells in the final assay giving a final DMSO concentration of 0.2%. For 384-well assays, 15 μL of compound in DMSO were diluted using nine (9) serial 1:3 dilutions of 5 μL in 10 μL of DMSO, followed by a further dilution of 5 μL of compound with 95 μL of medium, of which 2 μL were added to cells in the final assay giving a final DMSO concentration of 0.2%. Cells were incubated at 37° C., 5% CO2 for 3 days.
Total ATP was measured (as a surrogate estimate of cell number) using CellTiter-Glo® reagent (Promega G7571). Briefly, plates were removed from the incubator and allowed to equilibrate to room temperature for 30 minutes. CellTiter-Glo® (25 μL or 55 μL for 384-well or 96-well assays, respectively) reagent was added to each well and plates were shaken on an orbital plate shaker for 2 minutes. Plates were incubated without shaking for a further 30 minutes and read on an LJL Analyst GT reader in luminometer mode with an integration time of 0.5 seconds per well. Percent inhibition of cell growth was calculated relative to DMSO vehicle-treated control wells. Concentration of compound required to give 50% inhibition of vehicle-treated control cell growth (IC50) was interpolated using a 4-parameter fit for determining IC50 using the following equation: Y=A +((B−A)/(1+((C/X)̂D))) where […].

[3] = Method B: final MEK 150 nM, single end point read

B-Raf, sequence (P15056 whole entry): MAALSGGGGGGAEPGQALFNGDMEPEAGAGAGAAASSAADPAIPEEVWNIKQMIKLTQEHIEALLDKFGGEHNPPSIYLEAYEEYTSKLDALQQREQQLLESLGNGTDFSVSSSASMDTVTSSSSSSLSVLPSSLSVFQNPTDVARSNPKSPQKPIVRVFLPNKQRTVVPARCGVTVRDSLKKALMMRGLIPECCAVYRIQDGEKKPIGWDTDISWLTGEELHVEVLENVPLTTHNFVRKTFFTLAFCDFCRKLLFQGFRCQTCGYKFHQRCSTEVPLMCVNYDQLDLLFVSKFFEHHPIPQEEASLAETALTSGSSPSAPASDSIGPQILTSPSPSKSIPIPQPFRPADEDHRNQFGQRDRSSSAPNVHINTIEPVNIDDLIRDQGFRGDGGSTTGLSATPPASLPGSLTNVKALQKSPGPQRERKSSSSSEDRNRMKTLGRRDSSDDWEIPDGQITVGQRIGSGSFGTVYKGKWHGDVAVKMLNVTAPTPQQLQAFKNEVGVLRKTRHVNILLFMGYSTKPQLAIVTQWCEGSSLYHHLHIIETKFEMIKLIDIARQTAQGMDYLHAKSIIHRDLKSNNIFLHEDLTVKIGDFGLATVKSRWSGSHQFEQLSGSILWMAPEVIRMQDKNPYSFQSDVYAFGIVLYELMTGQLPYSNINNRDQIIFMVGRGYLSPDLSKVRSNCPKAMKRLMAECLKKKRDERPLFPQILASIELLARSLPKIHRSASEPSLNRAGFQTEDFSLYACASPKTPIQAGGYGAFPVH

Row | Compound | IC50 ([1]; Method A) [nM] | IC50 [2] [nM] | IC50 [1, 3] [nM] | Activity in HT-29 Tumor Cells [2]
1 | CCNc1nc(-c2cccc(NS(=O)(=O)c3ccccc3)c2)c(-c2ccnc(Nc3ccc(OCCN4CCCC4)c(F)c3)n2)s1 [Example 1, N-(3-(2-(Ethylamino)-5-{2-[(3-fluoro-4-[[2-(1-pyrrolidinyl)ethyl]oxy}phenyl)amino]-4-pyrimidinyl}-1,3-thiazol-4-yl)phenyl]benzenesulfonamide] | 100 to 1000 |  |  | ++ (activity of between 100 nM and 1 μM in HT-29 tumor cells)
2 | CC(C)c1nc(-c2cccc(NS(=O)(=O)c3ccccc3)c2)c(-c2ccnc(Nc3ccc(N4CCOCC4)nc3)n2)s1 [Example 8, N-{3-[2-(1-Methylethyl)-5-(2-{[6-(4-morpholinyl)-3-pyridinyl]amino}-4-pyrimidinyl)-1,3-thiazol-4-yl]phenyl}benzenesulfonamide hydrochloride] |  | 100 to 1000 | < 100 | 
3 | COc1ccc(Nc2nccc(-c3sc(C(C)C)nc3-c3cccc(NS(=O)(=O)c4ccccc4)c3)n2)cc1N1CCN(CCC#N)CC1 [Example 9, N-{3-[5-(2-{[3-[4-(2-Cyanoethyl)-1-piperazinyl]-4-(methyloxy)phenyl]amino}-4-pyrimidinyl)-2-(1-methylethyl)-1,3-thiazol-4-yl]phenyl}benzenesulfonamide] |  | 100 to 1000 | < 100 | 
4 | CC(=O)N1CCN(c2ccc(Nc3nccc(-c4sc(C(C)C)nc4-c4cccc(NS(=O)(=O)c5ccc(F)cc5)c4)n3)cn2)CC1 [Example 10, N-{3-[5-(2-{[6-(4-Acetyl-1-piperazinyl)-3-pyridinyl]amino}-4-pyrimidinyl)-2-(1-methylethyl)-1,3-thiazol-4-yl]phenyl}-4-fluorobenzenesulfonamide] |  | 100 to 1000 | < 100 | 
5 | CC(C)c1nc(-c2cccc(NS(=O)(=O)c3c(F)cccc3F)c2)c(-c2ccnc(Nc3ccc(OC4CCN(CCS(C)(=O)=O)CC4)c(F)c3)n2)s1 [Example 13, 2,6-Difluoro-N-{3-[5-(2-{[3-fluoro-4-({1-[2-(methylsulfonyl)ethyl]-4-piperidinyl}oxy)phenyl]amino}-4-pyrimidinyl)-2-(1-methylethyl)-1,3-thiazol-4-yl]phenyl}benzenesulfonamide hydrochloride] |  | 100 to 1000 | < 100 | 
6 | CC(C)c1nc(-c2cccc(NS(=O)(=O)c3c(F)cccc3F)c2)c(-c2ccnc(Nc3ccc(N4CCOCC4)c(C(=O)O)c3)n2)s1 [Example 14, 5-({4-[4-(3-{[(2,6-Difluorophenyl)sulfonyl]amino}phenyl)-2-(1-methylethyl)-1,3-thiazol-5-yl]-2-pyrimidinyl}amino)-2-(4-morpholinyl)benzoic acid] |  | 100 to 1000 | < 100 | 

Further lines, with some results ahead:

Row | IC50 ([1]; Method A) [nM] | IC50 [2] [nM] | IC50 [1, 3] [nM] | Compound | Activity in HT-29 Tumor Cells [2]
7 | < 100 | < 100 |  | COCCN1CCN(c2ccc(Nc3nccc(-c4sc(C(C)C)nc4-c4cccc(NS(=O)(=O)c5ccccc5)c4)n3)cn2)CC1 [Example 6, N-[3-(2-(1-Methylethyl)-5-{2-[(6-{4-[2-(methyloxy)ethyl]-1-piperazinyl}-3-pyridinyl)amino]-4-pyrimidinyl}-1,3-thiazol-4-yl)phenyl]benzenesulfonamide] | 
8 |  | < 100 | < 100 | CC(=O)N1CCN(c2ccc(Nc3nccc(-c4sc(C(C)C)nc4-c4cccc(NS(=O)(=O)c5cccc(F)c5)c4)n3)cn2)CC1 [Example 11, N-{3-[5-(2-{[6-(4-Acetyl-1-piperazinyl)-3-pyridinyl]amino}-4-pyrimidinyl)-2-(1-methylethyl)-1,3-thiazol-4-yl]phenyl}-3-fluorobenzenesulfonamide] | 
9 |  | < 100 | < 100 | CC(=O)N1CCN(c2ccc(Nc3nccc(-c4sc(C(C)C)nc4-c4cccc(NS(=O)(=O)c5ccccc5F)c4)n3)cn2)CC1 [Example 12, N-{3-[5-(2-{[6-(4-Acetyl-1-piperazinyl)-3-pyridinyl]amino}-4-pyrimidinyl)-2-(1-methylethyl)-1,3-thiazol-4-yl]phenyl}-2-fluorobenzenesulfonamide] | 
10 |  | < 100 | < 100 | CC(C)c1nc(-c2cccc(NS(=O)(=O)c3c(F)cccc3F)c2)c(-c2ccnc(Nc3ccc(N4CCN5CCOC[C@H]5C4)nc3)n2)s1 [Example 15] | 
